Laboratory results as given in patent US6747033B2, “Fungicidal triazolopyrimid-7-ylideneamines” (BASF Aktiengesellschaft, priority 2000, dated 2004).
Like-named read-outs stand apart in the source and are kept apart here.

Key:
[1] = system: Pseudocercosporella herpotrichoides; assay: In vitro fungicidal activity, Cereal eye spot (PSDCHE); assay type: cell-based; set-up: key: 0: None; 3: slight; 5: moderate; 7: severe; 9: complete; conditions: 3-7 days of incubation
Procedure: (§1) Test compounds are dissolved in acetone to give concentrations of 25, 10 and 1 ppm and are added to individual cell Walls (24-cell-well plates, Corning), which were previously filled with a suspension of ground plates, Corning), which were previously filled with a suspension of ground fungal mycelium in a chemically defined growth medium. After 3-7 days of incubation, inhibition of […] growth is recorded using the following scale: The data obtained are shown in Table II. [table]

Rhizoctonia solani = assay: In vitro fungicidal activity, Rice sheath blight (RHIZSO); assay type: cell-based; set-up: key: 0: None; 3: slight; 5: moderate; 7: severe; 9: complete; conditions: 3-7 days of incubation
Procedure: as §1

Cercospora beticola = assay: In vivo fungicidal activity, Sugar Beet Cercospora (SBC); also: ranges in brackets are in %
Venturia inaequalis = assay: In vivo fungicidal activity, Apple Scab (AS); also: ranges in brackets are in %
Blumeria graminis = assay: In vivo fungicidal activity, Wheat powdery mildew (WPM); also: ranges in brackets are in %
Plasmopara viticola = assay: In vivo fungicidal activity, Grape downy mildew (GDM); also: ranges in brackets are in %
Alternara solani = assay: In vivo fungicidal activity, Tomato early blight (TEB); also: ranges in brackets are in %
Botrytis cinera = assay: In vivo fungicidal activity, Pepper Botrytis (PB); also: ranges in brackets are in %
Pythium ultimum = assay: In vitro fungicidal activity, Fruit rot (PYTHUL); assay type: cell-based; set-up: key: 0: None; 3: slight; 5: moderate; 7: severe; 9: complete; conditions: 3-7 days of incubation
Procedure: as §1

[2] = system: Pyricularia grisea f. sp. oryzae; assay type: in vivo; conditions: Rice Blast

| SMILES | SBC disease control rating (Cercospora beticola; 12.5 ppm spray) | SBC disease control rating (Cercospora beticola; 50 ppm spray) | AS disease control rating (Venturia inaequalis; 12.5 ppm spray) | AS disease control rating (Venturia inaequalis; 50 ppm spray) | AS disease control rating (Venturia inaequalis; 200 ppm spray) | WPM disease control rating (Blumeria graminis; 12.5 ppm spray) | WPM disease control rating (Blumeria graminis; 50 ppm spray) | WPM disease control rating (Blumeria graminis; 200 ppm spray) | GDM disease control rating (Plasmopara viticola; 12.5 ppm spray) | GDM disease control rating (Plasmopara viticola; 50 ppm spray) | GDM disease control rating (Plasmopara viticola; 200 ppm spray) | TEB disease control rating (Alternara solani; 12.5 ppm spray) | TEB disease control rating (Alternara solani; 50 ppm spray) | TEB disease control rating (Alternara solani; 200 ppm spray) | PB disease control rating (Botrytis cinera; 12.5 ppm spray) | PB disease control rating (Botrytis cinera; 50 ppm spray) | PB disease control rating (Botrytis cinera; 200 ppm spray) | RB disease control rating ([2]; 12.5 ppm spray) | RB disease control rating ([2]; 50 ppm spray) | RB disease control rating ([2]; 200 ppm spray) | further results |
| --- | --- | --- | --- | --- | --- | --- | --- | --- | --- | --- | --- | --- | --- | --- | --- | --- | --- | --- | --- | --- | --- |
| Cn1c(Cl)c(-c2c(F)cc(F)cc2F)c(=NCC(F)(F)F)n2ncnc12 [Example 1A, N-(5-chloro-4-methyl-6-(2,4,6-trifluorophenyl)-4H[1,2,4]triazolo[1,5-α]pyrimidin-7-ylidene]-N-(2,2,2-trifluoroethyl)-amine] | 0 (0) | 6 (75-89) | 0 (0) | 6 (75-89) | 9 (100) | 0 (0) | 7 (90-95) | 8 (96-99) | 5 (60-74) | 6 (75-89) | 4 (45-59) | 0 (0) | 0 (0) | 3 (30-44) | 0 (0) | 5 (60-74) | 0 (0) | 0 (0) | 0 (0) | 6 (75-89) | PSDCH inhibition of mycelial growth rating ([1]; 1 ppm): 0; PSDCH inhibition of mycelial growth rating ([1]; 10 ppm): 0; PSDCH inhibition of mycelial growth rating ([1]; 25 ppm): 0; RHIZSO inhibition of mycelial growth rating (Rhizoctonia solani; 1 ppm): 5; RHIZSO inhibition of mycelial growth rating (Rhizoctonia solani; 10 ppm): 7; RHIZSO inhibition of mycelial growth rating (Rhizoctonia solani; 25 ppm): 7; SBC disease control rating (Cercospora beticola; 200 ppm spray): 8 (96-99); PYTHU inhibition of mycelial growth rating (Pythium ultimum; 1 ppm): 0; PYTHU inhibition of mycelial growth rating (Pythium ultimum; 10 ppm): 0; PYTHU inhibition of mycelial growth rating (Pythium ultimum; 25 ppm): 0 |
| CCCn1c(Cl)c(-c2c(F)cc(F)cc2F)c(=NC(C)C(F)(F)F)n2ncnc12 (stereo not drawn) [Example 2] | 0 (0) | 0 (0) | 0 (0) | 0 (0) | 5 (60-74) | 0 (0) | 0 (0) | 0 (0) | 4 (45-59) | 2 (15-29) | 1 (1-14) | 0 (0) | 0 (0) | 0 (0) | 1 (1-14) | 1 (1-14) | 1 (1-14) | 0 (0) | 0 (0) | 0 (0) | SBC disease control rating (Cercospora beticola; 200 ppm spray): 3 (30-44) |
| CCn1c(Cl)c(-c2c(F)cc(F)cc2F)c(=NC(C)C(F)(F)F)n2ncnc12 (stereo not drawn) [Example 3] | 0 (0) | 0 (0) | 0 (0) | 0 (0) | 6 (75-89) | 0 (0) | 0 (0) | 3 (30-44) | 0 (0) | 4 (45-59) | 4 (45-59) | 3 (30-44) | 3 (30-44) | 0 (0) | 2 (15-29) | 0 (0) | 0 (0) | 0 (0) | 0 (0) | 5 (60-74) | PSDCH inhibition of mycelial growth rating ([1]; 1 ppm): 0; PSDCH inhibition of mycelial growth rating ([1]; 10 ppm): 1; PSDCH inhibition of mycelial growth rating ([1]; 25 ppm): 1; RHIZSO inhibition of mycelial growth rating (Rhizoctonia solani; 1 ppm): 3; RHIZSO inhibition of mycelial growth rating (Rhizoctonia solani; 10 ppm): 5; RHIZSO inhibition of mycelial growth rating (Rhizoctonia solani; 25 ppm): 5; SBC disease control rating (Cercospora beticola; 200 ppm spray): 0 (0); PYTHU inhibition of mycelial growth rating (Pythium ultimum; 1 ppm): 0; PYTHU inhibition of mycelial growth rating (Pythium ultimum; 10 ppm): 0; PYTHU inhibition of mycelial growth rating (Pythium ultimum; 25 ppm): 0 |
| CCCn1c(Cl)c(-c2c(F)cc(OC)cc2F)c(=NC(C)C(F)(F)F)n2ncnc12 (stereo not drawn) [Example 4] | 0 (0) | 0 (0) | 0 (0) | 0 (0) | – | 0 (0) | 0 (0) | – | 0 (0) | 0 (0) | – | 0 (0) | 0 (0) | – | 0 (0) | 0 (0) | – | 0 (0) | 0 (0) | – | SBC disease control rating (Cercospora beticola; 3.1 ppm spray): 0 (0); AS disease control rating (Venturia inaequalis; 3.1 ppm spray): 0 (0); WPM disease control rating (Blumeria graminis; 3.1 ppm spray): 0 (0); GDM disease control rating (Plasmopara viticola; 3.1 ppm spray): 4 (45-59); TEB disease control rating (Alternara solani; 3.1 ppm spray): 3 (30-44); PB disease control rating (Botrytis cinera; 3.1 ppm spray): 0 (0); RB disease control rating ([2]; 3.1 ppm spray): 0 (0) |
| CCCOc1cc(F)c(-c2c(Cl)nc3n(CCC)cnn3c2=NC(C)C(F)(F)F)c(F)c1 (stereo not drawn) [Example 9] | 8 (96-99) | 8 (96-99) | 0 (0) | 6 (75-89) | 6 (75-89) | 2 (15-29) | 6 (75-89) | 7 (90-95) | 5 (60-74) | 3 (30-44) | 3 (30-44) | 6 (75-89) | 8 (96-99) | 9 (100) | 2 (15-29) | 1 (1-14) | 2 (15-29) | 0 (0) | 3 (30-44) | 4 (45-59) | PSDCH inhibition of mycelial growth rating ([1]; 1 ppm): 3; PSDCH inhibition of mycelial growth rating ([1]; 10 ppm): 3; PSDCH inhibition of mycelial growth rating ([1]; 25 ppm): 5; RHIZSO inhibition of mycelial growth rating (Rhizoctonia solani; 1 ppm): 7; RHIZSO inhibition of mycelial growth rating (Rhizoctonia solani; 10 ppm): 7; RHIZSO inhibition of mycelial growth rating (Rhizoctonia solani; 25 ppm): 7; SBC disease control rating (Cercospora beticola; 200 ppm spray): 8 (96-99); PYTHU inhibition of mycelial growth rating (Pythium ultimum; 1 ppm): 0; PYTHU inhibition of mycelial growth rating (Pythium ultimum; 10 ppm): 0; PYTHU inhibition of mycelial growth rating (Pythium ultimum; 25 ppm): 0 |
| CCCn1cnn2c(=NC(C)C(F)(F)F)c(-c3c(F)cc(OC)cc3F)c(Cl)nc12 (stereo not drawn) [Example 12] | 0 (0) | 0 (0) | 0 (0) | 0 (0) | 0 (0) | 0 (0) | 0 (0) | 0 (0) | 0 (0) | 0 (0) | 0 (0) | 0 (0) | 0 (0) | 0 (0) | 0 (0) | 0 (0) | 0 (0) | 0 (0) | 0 (0) | 0 (0) | SBC disease control rating (Cercospora beticola; 200 ppm spray): 0 (0) |
| Cn1c(Cl)c(-c2c(F)cc(F)cc2F)c(=NCC(F)(F)F)n2ncnc12 [Example 17] | – | – | 0 (0) | 2 (15-29) | 6 (75-89) | 0 (0) | 2 (15-29) | 6 (75-89) | 0 (0) | 0 (0) | 5 (60-74) | 0 (0) | 0 (0) | 0 (0) | 0 (0) | 0 (0) | 0 (0) | 0 (0) | 3 (30-44) | 4 (45-59) | PSDCH inhibition of mycelial growth rating ([1]; 1 ppm): 0; PSDCH inhibition of mycelial growth rating ([1]; 10 ppm): 1; PSDCH inhibition of mycelial growth rating ([1]; 25 ppm): 3; RHIZSO inhibition of mycelial growth rating (Rhizoctonia solani; 1 ppm): 7; RHIZSO inhibition of mycelial growth rating (Rhizoctonia solani; 10 ppm): 7; RHIZSO inhibition of mycelial growth rating (Rhizoctonia solani; 25 ppm): 7; PYTHU inhibition of mycelial growth rating (Pythium ultimum; 1 ppm): 0; PYTHU inhibition of mycelial growth rating (Pythium ultimum; 10 ppm): 5; PYTHU inhibition of mycelial growth rating (Pythium ultimum; 25 ppm): 7 |
